These results are taken from patent US20040141939A1, “Cosmetic or dermatological use of peptides for promoting adhesion between skin cells” (priority 2001, published 2004).

Peptide text beside a SMILES is read from it.

Series [1] in a line: Stability of the peptide by HPLC at various temperatures. As to conditions: 10^-4 M; after 8 days at 25° C. Type of series: physicochemical. The method, then:
The Peptide Lys-Leu-Asp-Ala-Pro-Thr was analyzed with a concentration of 10^-4 M by HPLC on a column of the C18 type, and with a linear gradient water/TFA 0.1%-acetonitril/TFA 0.1%.

Series [2] in a line: Stability of the peptide in culture medium conditioned by human fibroblasts and keratinocytes (released degradation enzymes), HPLC. It is filed as in vitro ADME. As to conditions: medium from human fibroblasts and keratinocytes cultivated 24 hours at 37° C.; after 24 hours with peptide. Here is the method: Human fibroblasts and keratinocytes were cultivated during 24 hours at 37° C. and 5% of CO2. For this period, the cells will release many degradation enzymes in the culture medium. Thereafter, the culture medium is removed to be put in the presence of the peptide.

The test system of series [3] is fibroblasts and keratinocytes in culture. Briefly: Peptide applied to fibroblasts and keratinocytes in culture, HPLC analysis of the culture medium. Type of series: in vitro ADME, human. As to conditions: in a few hours. The method, then:
A test is carried out by applying the peptide to the fibroblasts and to the keratinocytes in culture.
This assumption is then consolidated by the tests of effectiveness exposed in the following examples.

For a further series, the system named is keratinocytes. The series can be described thus: Adhesion of keratinocytes to pre-treated 96 wells micro-plates (MTT, OD 560 nm against 630 nm). As to conditions: Condition C: wells pre-treated 12 hours at 50 ppm; 3 hours contact with keratinocytes. It is filed as cell-based. The method, then: The study is carried out in 96 wells micro-plates on keratinocytes cultured in an incubator at 37° C. and 5% of CO2.
The wells of these plates are pre-treated, for 12 hours, in different ways; four conditions have been realized:
Condition A: negative control, not containing peptide;
Condition B: incubated with various peptides, made up from 3 to 25 amino acids, with a concentration of 35 ppm;
Condition C: incubated with fibronectin with a concentration of 50 ppm;
Condition D: incubated with the peptide of sequence Lys-Leu-Asp-Ala-Pro-Thr to a concentration of 5 ppm.
After 3 hours of contact with the keratinocytes, the wells are completely filled with medium, hermetically closed, turned over and agitated on a three-dimensional agitator during 20 minutes. Then the plates are emptied and the remaining medium is aspired. Then, 100 μl of MTT with 1 mg/ml are added by wells and are left for 3 hours at 37° C. and 5% CO2. The solution is finally withdrawn, then 100 μl of DMSO is added. A reading of the OD is made at 560 nm against 630 nm.
The OD is proportional to the quantity of viable cells, i.e. which adhered to the micro-plates.

With `CC(C)C[C@H](NC(=O)[C@@H](N)CCCCN)C(=O)N[C@@H](CC(=O)O)C(=O)N[C@@H](C)C(=O)N1CCC[C@H]1C(=O)N[C@H](C(=O)O)[C@@H](C)O` [Lys-Leu-Asp-Ala-Pro-Thr] (H-KLDAPT-OH; N-terminus and C-terminus assumed), the “peptide degradation (HPLC)” value in series [1] is listed as “no peptide degradation”. The “degradation of peptide in conditioned culture medium” value in series [2] is “almost no degradation”. For the same molecule, in series [3], the “peptide concentration in culture medium” value is “decreases quickly”.
Regarding fibronectin, in the series on keratinocytes, the “O.D. (adhered viable cells)” value amounted to 0.770.
